Experimental data reported in patent US9539327B2, “Small molecule cancer treatments that cause necrosis in cancer cells but do not affect normal cells” (THE RESEARCH FOUNDATION FOR THE STATE UNIVERSITY OF NEW YORK, priority 2007, dated 2017).
Ends that are not written are not given here.

What was measured:
[1] = tested on: MiaPaCa-2, Hu-Melanoma cells, BMRPA1.TUC-3 cells; assay: Dose-response cytotoxicity by LDH release, cancer cells (FIG. 13 A-C); assay type: cell-based; details: 1-500 micrograms/ml; 30 min at 37° C.; tumor cells
Method: (§1) FIG. 13, graphs A through D, depict the results of dose-response experiments completed on three difference cancer cell samples and one normal primary human cell line to treatment in vitro with PNC-27 (from 1-500 micrograms/ml). The cancer cell lines were human pancreatic cancer, MiaPaCa-2 (upper left, A), Hu-Melanoma cells (upper right, B), and a rodent tumor cell line, i.e., pancreatic cancer BMRPA1.TUC-3 cells (lower left, C). As controls, cells from the same cell lines were tested in parallel with a control peptide, PNC-29, over the same range of peptide concentrations. As another control, cells from primary human Ag 13145 fibroblasts (lower right, D) were treated with the same doses of PNC-27 and PNC-29, respectively.
(§2) The results are plotted along with those for PNC-29, the negative control. […] The measurements of cytotoxicity were performed by assaying for LDH in the cell supernatant.
(§3) For the dose response experiments (n=3-5), 0.1 ml of each of the cells (70,000 cells/ml of culture medium) were seeded into each of the wells of 96-well TCD (7000 cells/well) and allowed to adhere overnight. […] The results were read at OD490 nm in an ELISA plate reader within 15 min of stopping the color development in the wells. The results were calculated as advised by the manufacturers guidelines (CytoTox 96 Non-radioactive Cytotoxicity Assay, Promega), and the data were expressed in % Cytotoxicity.

[2] = tested on: human pancreatic cancer MIA PaCa-2 cells; assay: Transmission electron microscopy of PNC-28-treated cells (FIG. 8); assay type: cell-based; details: treated for 10 minutes; 50 μg/ml
Method: FIG. 8 depicts a photograph taken during a Transmission Electron Microscopy study of human pancreatic cancer MIA PaCa-2 cells that had been treated for 10 minutes with PNC-28. […] The middle arrow depicts an area of the cell's plasma membrane that has erupted as a result of PNC-28 acting upon it. The bottom-most arrow depicts an area on the cell's plasma membrane that is discontinuous as a result of PNC-28 administration. From one or more of these areas emphasized with arrows, the cytoplasm will begin to leak from the cell, into the surrounding medium. Extrusion of much of the cells cytoplasmic content through such holes (pores) while the nuclear membrane was still intact was a frequent finding in these and other tumor cells when the incubation period with PNC-28 was extended. Magn. ×42,600.
Cells (1×10^6) were grown in 6-well dishes overnight then spent medium was removed, the cells were washed with PBS and treated at 37° C. with PNC-28 at 50 μg/ml in PBS. At different time points (5-30 min) during the PNC-28 treatment the cells were washed and fixed in 3% buffered paraformaldehyde supplemented with 0.01% glutaraldehyde for 1.5 h. After extensive washing, the cells were treated with glycine and NaBH4 as described above followed by 3 times washing in PBS. […]

non-cancerous cells = assay: Untransformed cell lines and primary human cells incubated with peptide (FIG. 5); assay type: cell-based; details: Thirty microMolar; one day up to two weeks; normal rat pancreatic acinar cells, human breast cells, primary human fibroblasts, primary human keratinocytes, umbilical cord stem cells
From the text: The experimental methods which yielded the data depicted in FIG. 5 are described in sufficient detail for those skilled in the art in the following publications: • Kanovsky, M., Raffo, A., Drew, L., Rosal, R., Do, T., Friedman, F. K., Rubinstein, P., Visser, I., Robinson, R., Brandt-Rauf, […]., Fine, R. L. and Pincus, M. R. (2001) Peptides from the Amino Terminal mdm-2 Binding Domain of p53, Designed from Conformational Analysis, Are Selectively Cytotoxic to Transformed Cells. Proc. Natl. Acad. Sci. USA 98, 12438-12443; • Do, T. N., Rosal, R. V., Drew, L., Raffo, […]., Pincus, M. R., Friedman, […]., Sidhu, G., Fine, R. L. and Brandt-Rauf, P. W. (2003) Preferential Induction of Necrosis in Human Breast Cancer Cells by a p53 Peptide Derived from the mdm-2 Binding Site. Oncogene 22, 1431-1444; and • Bowne, […]., Yadzi, E., Lou, […]., Harding, M., Bluth, M. H., Ng, M., Brandt-Rauf, […]. and Pincus, M. r. (2008) The Penetrating Sequence in the Anti-Cancer PNC-28 Peptide Causes Tumor Necrosis Rather than Apoptosis of Human Pancreatic Cancer Cells. Ann. Surg. Oncol., in press. Referring to FIG. 5, the table illustrates that the cancer treatment PNC-27, when administered to non-cancerous cells, has no effect. […]

[3] = tested on: primary human Ag 13145 fibroblasts; assay: Dose-response cytotoxicity by LDH release, normal fibroblasts (FIG. 13 D); assay type: cell-based; details: same dose range as applied to tumor cells (1-500 micrograms/ml); 30 min at 37° C.
Method: as §1, §2, §3

Row | Molecule | cytotoxicity (LDH in the cell supernatant) [1] | plasma membrane change (TEM) [2] | effect on non-cancerous cells (non-cancerous cells) | cytotoxicity (LDH in the cell supernatant) [3] | IC50 (Cancer cells) [µg/mL]
1 | CC[C@H](C)[C@H](NC(=O)[C@H](CCCNC(=N)N)NC(=O)[C@H](CCCCN)NC(=O)CNC(=O)[C@@H](NC(=O)[C@H](CO)NC(=O)[C@H](Cc1ccccc1)NC(=O)[C@@H]1CCCN1C(=O)[C@@H](N)CCSC)[C@@H](C)O)C(=O)N[C@@H](CCSC)C(=O)N[C@@H](CC(C)C)C(=O)NCC(=O)N[C@@H](CCC(=O)O)C(=O)N[C@@H](CCCCN)C(=O)N[C@@H](CCCCN)C(=O)N[C@@H](Cc1c[nH]c2ccccc12)C(=O)N[C@@H](CCCCN)C(=O)N[C@@H](CCSC)C(=O)N[C@@H](CCCNC(=N)N)C(=O)N[C@@H](CCCNC(=N)N)C(=O)N[C@@H](CC(N)=O)C(=O)N[C@@H](CCC(N)=O)C(=O)N[C@@H](Cc1ccccc1)C(=O)N[C@@H](Cc1c[nH]c2ccccc12)C(=O)N[C@H](C(=O)N[C@@H](CCCCN)C(=O)N[C@H](C(=O)N[C@@H](CCC(N)=O)C(=O)N[C@@H](CCCNC(=N)N)C(=O)NCC(=O)O)C(C)C)C(C)C [PNC-29, reference compound] | absence of any effect |  |  |  | 
2 | ETFSDLWKLLKKWKMRRNQFWVKVQRG (PNC-28) [p53 AA 17-26 attached to the membrane resident peptide (MRP)] |  | needle-shaped pore has formed in the cancer cell plasma membrane | no measurable effect |  | 
3 | PPLSQETFSDLWKLLKKWKMRRNQFWVKVQRG [PNC-27] | strong dose dependency |  |  | no effect | 125
